According to paper PMC3880798 (Clinical cancer research : an official journal of the …, 2013):
Values joined by “and” are separate entries in the source; they are usually repeats but may differ in a detail not shown here. Equal values may be shown once.

Assays:
[1] = in vivo
[2] = system: pelvic or hepatic lesions; assay: DCE-MRI functional imaging; assay type: in vivo, human
[3] = Phase I dose escalation: safety, tolerability, DLT and MTD
advanced solid tumors = assay: Antitumor response; assay type: in vivo, human
[4] = Plasma pharmacokinetics of OSI-930; assay type: in vivo, human; conditions: for AUC / Cmax / concentration at 22 day / half-life / Tmax: human, plasma
c-Kit = conditions: intact cellular systems; cited from earlier work
[5] = 19 evaluable patients with GIST
[6] = ovarian cancer patient, 400 mg twice a day
[7] = second ovarian cancer patient, 500 mg twice a day

O=C(Nc1ccc(OC(F)(F)F)cc1)c1sccc1NCc1ccnc2ccccc12 [OSI-930]
Cases of grade 2 proteinuria ([1]; human): 1 case
Grade 3 hypertension (number) ([1]; human): 1
Patients requiring a dose modification ([1]; human): 33 patients
Patients who developed grade 1 to 2 PPE ([1]; human): 15%
Patients with adverse events considered related to OSI-930 ([1]; human): 58%
Patients with anorexia (reported adverse events) ([1]; human): 6
Patients with at least 1 grade 3 adverse event of any cause ([1]; human): 50%
Patients with fatigue (reported adverse events) ([1]; human): 8
Patients with grade 1 to 2 drug-related fatigue ([1]; human): 3 patients
Patients with grade 1 to 2 drug-related nausea and anorexia ([1]; human): 2 patients
Patients with grade 3 PPE ([1]; human): 1 patient
Patients with nausea (reported adverse events) ([1]; human): 5
Patients with treatment discontinued for toxicity ([1]; human): 1 patient
Treatment-related adverse events greater than grade 2 ([1]; human): no treatment-related adverse events greater than grade 2
Treatment-related fatigue ([1]; human): 50%
Treatment-related grade 3 fatigue ([1]; human): 6%
Treatment-related grade 3 hypertension ([1]; human): 6%
Treatment-related grade 3 nausea ([1]; human): 6%
Treatment-related grade 3 skin toxicity ([1]; human): 6%
Patients with grade 1 to 2 drug-related skin and subcutaneous disorders ([1]; human, sc): 3 patients
Reports of mucositis [1]: no reports of mucositis
Decreases of IAUC and AUC from baseline values ([2]; 4 responding patients, 500 mg twice a day): −4% to −78%
Decrease in Ktrans and Ve ([2]; day 22, 4 of 6 patients with non-GIST tumors): > 40%
Treatment-related AEs (number): Abdominal pain, G1–2 ([3]; 1,600 mg once a day (n = 3)): 1
Treatment-related AEs (number): Abdominal pain, G3 ([3]; 1,600 mg once a day (n = 3)): 0
Treatment-related AEs (number): Anorexia, G1–2 ([3]; 1,600 mg once a day (n = 3)): 2
Treatment-related AEs (number): Anorexia, G3 ([3]; 1,600 mg once a day (n = 3)): 0
Treatment-related AEs (number): Diarrhea, G1–2 ([3]; 1,600 mg once a day (n = 3)): 0
Treatment-related AEs (number): Diarrhea, G3 ([3]; 1,600 mg once a day (n = 3)): 0
Treatment-related AEs (number): Dry skin, G1–2 ([3]; 1,600 mg once a day (n = 3)): 0
Treatment-related AEs (number): Dry skin, G3 ([3]; 1,600 mg once a day (n = 3)): 0
Treatment-related AEs (number): Dyspepsia, G1–2 ([3]; 1,600 mg once a day (n = 3)): 0
Treatment-related AEs (number): Dyspepsia, G3 ([3]; 1,600 mg once a day (n = 3)): 0
Treatment-related AEs (number): Fatigue, G1–2 ([3]; 1,600 mg once a day (n = 3)): 1
Treatment-related AEs (number): Fatigue, G3 ([3]; 1,600 mg once a day (n = 3)): 0
Treatment-related AEs (number): Flatulence, G1–2 ([3]; 1,600 mg once a day (n = 3)): 0
Treatment-related AEs (number): Flatulence, G3 ([3]; 1,600 mg once a day (n = 3)): 0
Treatment-related AEs (number): Hair color changes, G1–2 ([3]; 1,600 mg once a day (n = 3)): 0
Treatment-related AEs (number): Hair color changes, G3 ([3]; 1,600 mg once a day (n = 3)): 0
Treatment-related AEs (number): Headache, G1–2 ([3]; 1,600 mg once a day (n = 3)): 0
Treatment-related AEs (number): Headache, G3 ([3]; 1,600 mg once a day (n = 3)): 0
Treatment-related AEs (number): Hypertension, G1–2 ([3]; 1,600 mg once a day (n = 3)): 0
Treatment-related AEs (number): Hypertension, G3 ([3]; 1,600 mg once a day (n = 3)): 0
Treatment-related AEs (number): Muscle spasms, G1–2 ([3]; 1,600 mg once a day (n = 3)): 0
Treatment-related AEs (number): Muscle spasms, G3 ([3]; 1,600 mg once a day (n = 3)): 0
Treatment-related AEs (number): Myalgia, G1–2 ([3]; 1,600 mg once a day (n = 3)): 0
Treatment-related AEs (number): Myalgia, G3 ([3]; 1,600 mg once a day (n = 3)): 0
Treatment-related AEs (number): Nausea, G1–2 ([3]; 1,600 mg once a day (n = 3)): 1
Treatment-related AEs (number): Nausea, G3 ([3]; 1,600 mg once a day (n = 3)): 0
Treatment-related AEs (number): Palmar-plantar erythema, G1–2 ([3]; 1,600 mg once a day (n = 3)): 0
Treatment-related AEs (number): Palmar-plantar erythema, G3 ([3]; 1,600 mg once a day (n = 3)): 0
Treatment-related AEs (number): Vomiting, G1–2 ([3]; 1,600 mg once a day (n = 3)): 0
Treatment-related AEs (number): Vomiting, G3 ([3]; 1,600 mg once a day (n = 3)): 0
DLTs observed ([3]; once a day dosing schedule, 50 to 1,600 mg): no DLTs
Treatment-related deaths ([3]; twice a day cohorts): no treatment-related deaths
Duration of disease stabilization (advanced solid tumors; 1 patient, anthracycline-resistant low-grade sarcoma, once a day): 139 weeks
Duration of RECIST stabilization of disease (advanced solid tumors; 1 patient, low-grade sarcoma, escalated from 100 to 1,200 mg once a day): 33 months
Patients with stable disease as best response (advanced solid tumors; [5]): 57.9% and 58%
RECIST PRs (advanced solid tumors; [5]): no RECIST PRs
RECIST partial or complete responses (advanced solid tumors; once a day cohorts): No RECIST partial or complete responses
Patients with stable disease as best response (advanced solid tumors; once a day cohorts, 50 to 1,600 mg): 4 of 12
Time of confirmed RECIST PR (advanced solid tumors; [6]): 24 weeks
Time of disease progression (advanced solid tumors; [6]): 65 weeks
Time to GCIG CA125 response (advanced solid tumors; [6]): 15 weeks
Median duration of stable disease (advanced solid tumors; patients with GIST): 126 days
Further duration of GCIG CA125 response (advanced solid tumors; [7]): 12 weeks
Time to GCIG CA125 response (advanced solid tumors; [7]): 12 weeks
Patients who achieved stable disease (advanced solid tumors; twice a day cohort): 48%
Rate and extent of absorption, sieved (screened) vs micronized capsules ([4]; 400 mg twice a day cohort, 3 vs 4 patients, data not shown): similar
Dose proportionality of exposure ([4]; 400 and 500 mg twice a day): dose proportional
Dose proportionality of exposure ([4]; between 500 and 600 mg twice a day): greater than dose proportional
AUC ([4]; oral, 50 mg, AUCtau, 50 mg once a day (n = 1), day 22, steady state): 2590 ng·h/mL
Cmax ([4]; oral, 50 mg, Cmax, 50 mg once a day (n = 1), day 22, steady state): 188 ng/mL
concentration at 22 day ([4]; oral, 50 mg, Cmin, 50 mg once a day (n = 1), day 22, steady state): 69.3 ng/mL
half-life ([4]; oral, 50 mg, T1/2, 50 mg once a day (n = 1), day 22, steady state): 12.6 h
Tmax ([4]; oral, 50 mg, Tmax, 50 mg once a day (n = 1), day 22, steady state): 6 h
AUC ([4]; oral, 100 mg, AUCtau, 100 mg once a day (n = 1), day 22, steady state): 2490 ng·h/mL
Cmax ([4]; oral, 100 mg, Cmax, 100 mg once a day (n = 1), day 22, steady state): 228 ng/mL
concentration at 22 day ([4]; oral, 100 mg, Cmin, 100 mg once a day (n = 1), day 22, steady state): 61.5 ng/mL
half-life ([4]; oral, 100 mg, T1/2, 100 mg once a day (n = 1), day 22, steady state): 18.5 h
Tmax ([4]; oral, 100 mg, Tmax, 100 mg once a day (n = 1), day 22, steady state): 4 h
AUC ([4]; oral, 200 mg, AUCtau, 200 mg once a day (n = 1), day 22, steady state): 4730 ng·h/mL
Cmax ([4]; oral, 200 mg, Cmax, 200 mg once a day (n = 1), day 22, steady state): 463 ng/mL
concentration at 22 day ([4]; oral, 200 mg, Cmin, 200 mg once a day (n = 1), day 22, steady state): 77.9 ng/mL
half-life ([4]; oral, 200 mg, T1/2, 200 mg once a day (n = 1), day 22, steady state): 7.95 h
Tmax ([4]; oral, 200 mg, Tmax, 200 mg once a day (n = 1), day 22, steady state): 6 h
AUC ([4]; oral, 400 mg, AUCtau, 400 mg once a day (n = 2), day 22, steady state): 10700 ng·h/mL
AUC ([4]; oral, 400 mg, AUCtau, 400 mg twice a day (n = 6), day 22, steady state): 7880 ng·h/mL
Cmax ([4]; oral, 400 mg, Cmax, 400 mg once a day (n = 2), day 22, steady state): 873 ng/mL
Cmax ([4]; oral, 400 mg, Cmax, 400 mg twice a day (n = 6), day 22, steady state): 802 ng/mL
concentration at 22 day ([4]; oral, 400 mg, Cmin, 400 mg once a day (n = 2), day 22, steady state): 306 ng/mL
concentration at 22 day ([4]; oral, 400 mg, Cmin, 400 mg twice a day (n = 6), day 22, steady state): 423 ng/mL
half-life ([4]; oral, 400 mg, T1/2, 400 mg once a day (n = 2), day 22, steady state): 13.8 h
half-life ([4]; oral, 400 mg, T1/2, 400 mg twice a day (n = 6), day 22, steady state): 4.07 h
Tmax ([4]; oral, 400 mg, Tmax, 400 mg once a day (n = 2), day 22, steady state): 4 h
Tmax ([4]; oral, 400 mg, Tmax, 400 mg twice a day (n = 6), day 22, steady state): 6.1 h
AUC ([4]; oral, 500 mg, AUCtau, 500 mg twice a day (n = 21), day 22, steady state): 5760 ng·h/mL
Cmax ([4]; oral, 500 mg, Cmax, 500 mg twice a day (n = 21), day 22, steady state): 1010 ng/mL
concentration at 22 day ([4]; oral, 500 mg, Cmin, 500 mg twice a day (n = 21), day 22, steady state): 547 ng/mL
half-life ([4]; oral, 500 mg, T1/2, 500 mg twice a day (n = 21), day 22, steady state): 7.11 h
Tmax ([4]; oral, 500 mg, Tmax, 500 mg twice a day (n = 21), day 22, steady state): 3.6 h
AUC ([4]; oral, 600 mg, AUCtau, 600 mg twice a day (n = 6), day 22, steady state): 11900 ng·h/mL
Cmax ([4]; oral, 600 mg, Cmax, 600 mg twice a day (n = 6), day 22, steady state): 2030 ng/mL
concentration at 22 day ([4]; oral, 600 mg, Cmin, 600 mg twice a day (n = 6), day 22, steady state): 1170 ng/mL
half-life ([4]; oral, 600 mg, T1/2, 600 mg twice a day (n = 6), day 22, steady state): 5.39 h
Tmax ([4]; oral, 600 mg, Tmax, 600 mg twice a day (n = 6), day 22, steady state): 3.5 h
AUC ([4]; oral, 800 mg, AUCtau, 800 mg once a day (n = 2), day 22, steady state): 11300 ng·h/mL
Cmax ([4]; oral, 800 mg, Cmax, 800 mg once a day (n = 2), day 22, steady state): 984 ng/mL
concentration at 22 day ([4]; oral, 800 mg, Cmin, 800 mg once a day (n = 2), day 22, steady state): 304 ng/mL
half-life ([4]; oral, 800 mg, T1/2, 800 mg once a day (n = 2), day 22, steady state): 18.1 h
Tmax ([4]; oral, 800 mg, Tmax, 800 mg once a day (n = 2), day 22, steady state): 4.1 h
AUC ([4]; oral, 1200 mg, AUCtau, 1,200 mg once a day (n = 1), day 22, steady state): 19600 ng·h/mL
Cmax ([4]; oral, 1200 mg, Cmax, 1,200 mg once a day (n = 1), day 22, steady state): 1990 ng/mL
concentration at 22 day ([4]; oral, 1200 mg, Cmin, 1,200 mg once a day (n = 1), day 22, steady state): 493 ng/mL
half-life ([4]; oral, 1200 mg, T1/2, 1,200 mg once a day (n = 1), day 22, steady state): 20.2 h
Tmax ([4]; oral, 1200 mg, Tmax, 1,200 mg once a day (n = 1), day 22, steady state): 4 h
AUC ([4]; oral, 1600 mg, AUCtau, 1,600 mg once a day (n = 3), day 22, steady state): 13000 ng·h/mL
Cmax ([4]; oral, 1600 mg, Cmax, 1,600 mg once a day (n = 3), day 22, steady state): 1070 ng/mL
concentration at 22 day ([4]; oral, 1600 mg, Cmin, 1,600 mg once a day (n = 3), day 22, steady state): 249 ng/mL
half-life ([4]; oral, 1600 mg, T1/2, 1,600 mg once a day (n = 3), day 22, steady state): 12.6 h
Tmax ([4]; oral, 1600 mg, Tmax, 1,600 mg once a day (n = 3), day 22, steady state): 6 h
half-life ([4]; oral, Terminal half-life, twice a day cohort): 2.3 to 7.1 h
Tmax ([4]; po, Time to peak plasma concentrations, once a day and twice a day cohorts): 2 to 10 h
Linearity of Cmax and AUC ([4]; once a day cohorts): linearity in Cmax and AUC in the dose range 50 to 1,200 mg, but not at 1,600 mg
Accumulation in plasma at steady state ([4]; twice a day oral administration): ~2 fold
Steady state plasma concentrations achieved ([4]; twice a day oral administration, predose concentrations days 8, 15, 22): ≤ 8 days
Potency for wild-type versus mutant c-Kit (c-Kit): equal potencies
